Results published in PubChem BioAssay (NCI).
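The compound was tested at five concentrations on cells cultured in 96-well plates, with a 48-hour exposure period. The concentration for full growth arrest is given as TGI.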

Assays:
Test in all cases: growth of human tumour cells (NCI), 48 h
HT29 colon = test system: HT29 colon
SR leukemia = test system: SR leukemia
UO-31 renal = test system: UO-31 renal
CAKI-1 renal = test system: CAKI-1 renal
OVCAR-4 ovarian = test system: OVCAR-4 ovarian
MOLT-4 leukemia = test system: MOLT-4 leukemia
SK-MEL-28 melanoma = test system: SK-MEL-28 melanoma
SK-MEL-5 melanoma = test system: SK-MEL-5 melanoma
KM12 colon = test system: KM12 colon
SF-295 CNS = test system: SF-295 CNS
M14 melanoma = test system: M14 melanoma
T-47D breast = test system: T-47D breast
HCT-116 colon = test system: HCT-116 colon
U251 CNS = test system: U251 CNS
K-562 leukemia = test system: K-562 leukemia
BT-549 breast = test system: BT-549 breast
SF-268 CNS = test system: SF-268 CNS
NCI-H226 lung = test system: NCI-H226 lung
RPMI-8226 leukemia = test system: RPMI-8226 leukemia
OVCAR-8 ovarian = test system: OVCAR-8 ovarian
SNB-19 CNS = test system: SNB-19 CNS
TK-10 renal = test system: TK-10 renal
SF-539 CNS = test system: SF-539 CNS
HOP-92 NSCLC = test system: HOP-92 NSCLC
OVCAR-3 ovarian = test system: OVCAR-3 ovarian
CCRF-CEM leukemia = test system: CCRF-CEM leukemia
EKVX NSCLC = test system: EKVX NSCLC
ACHN renal = test system: ACHN renal
HOP-62 NSCLC = test system: HOP-62 NSCLC
IGROV1 ovarian = test system: IGROV1 ovarian
HCT-15 colon = test system: HCT-15 colon
MDA-MB-231 breast = test system: MDA-MB-231 breast
HL-60(TB) leukemia = test system: HL-60(TB) leukemia
COLO 205 colon = test system: COLO 205 colon
SK-MEL-2 melanoma = test system: SK-MEL-2 melanoma
RXF 393 renal = test system: RXF 393 renal
NCI/ADR-RES ovarian = test system: NCI/ADR-RES ovarian
DU-145 prostate = test system: DU-145 prostate
MDA-MB-435 = test system: MDA-MB-435
A498 renal = test system: A498 renal
PC-3 prostate = test system: PC-3 prostate
MALME-3M melanoma = test system: MALME-3M melanoma
NCI-H522 lung = test system: NCI-H522 lung
A549 NSCLC = test system: A549 NSCLC
MCF7 breast = test system: MCF7 breast
HS 578T breast = test system: HS 578T breast
OVCAR-5 ovarian = test system: OVCAR-5 ovarian
UACC-257 melanoma = test system: UACC-257 melanoma
SK-OV-3 ovarian = test system: SK-OV-3 ovarian
MDA-N = test system: MDA-N
UACC-62 melanoma = test system: UACC-62 melanoma
SW-620 colon = test system: SW-620 colon
LOX IMVI melanoma = test system: LOX IMVI melanoma
SN12C renal = test system: SN12C renal
786-0 renal = test system: 786-0 renal
SNB-75 CNS = test system: SNB-75 CNS
NCI-H460 lung = test system: NCI-H460 lung
NCI-H23 lung = test system: NCI-H23 lung
HCC-2998 colon = test system: HCC-2998 colon

Measured: TGI

COc1nc2ncc([C@@H](O)[C@H](O)CO)nc2c(=O)n1C
not listed: NCI-H23 lung | HCC-2998 colon
> 100 µM: all other assays above

O=C(O)C1(Cc2ccccc2)Cc2ccccc2C1
not listed: CAKI-1 renal | HOP-92 NSCLC | 786-0 renal
> 100 µM: all other assays above

NCC(O)CSP(=O)(O)O (stereo not given)
not listed: SF-539 CNS | HCC-2998 colon
> 100 µM: all other assays above
